A word on the Ki: it is a dissociation constant, usually derived from enzyme kinetics or from competition with a known ligand.

The target in one test is T1, 4-hydroxyphenylpyruvate dioxygenase (Homo sapiens, UniProt P32754). The experiment in a line: Inhibition of purified His6-tagged recombinant human HPPD assessed as inhibition of maleylacetoacetate formation after 30 mins by UV/visible spectrophotometry.
Target sequence in this assay (P32754 whole entry): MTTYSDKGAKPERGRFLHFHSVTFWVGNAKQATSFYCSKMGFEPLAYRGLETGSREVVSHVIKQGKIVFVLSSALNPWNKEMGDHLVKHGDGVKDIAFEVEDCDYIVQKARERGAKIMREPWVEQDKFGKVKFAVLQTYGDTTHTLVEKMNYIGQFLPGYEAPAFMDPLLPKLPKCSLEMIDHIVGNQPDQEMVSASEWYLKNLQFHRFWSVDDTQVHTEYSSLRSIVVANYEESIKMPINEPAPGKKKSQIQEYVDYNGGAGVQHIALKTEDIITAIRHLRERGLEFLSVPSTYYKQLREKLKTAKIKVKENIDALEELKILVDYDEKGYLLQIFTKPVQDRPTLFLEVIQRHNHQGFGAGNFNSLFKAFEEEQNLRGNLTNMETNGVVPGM
For the compound `Cc1nc2ccc(C(=O)c3cnn(C)c3O)cc2c(=O)n1-c1ccccc1`, the Ki is 19 nM. Same read-out and setting: next, `Cc1ccc(-n2c(C)nc3ccc(C(=O)c4cnn(C)c4O)cc3c2=O)cc1`: 25 nM; `COc1ccccc1-n1c(C)nc2ccc(C(=O)c3c(C)nn(C)c3O)cc2c1=O`: 207 nM.

`Cc1ccc(-n2c(C)nc3ccc(C(=O)c4c(C)nn(C)c4O)cc3c2=O)c(C)c1`: the inhibitory constant (Ki) is 161 nM. On the same count and under the same terms, under `Cc1nc2ccc(C(=O)c3cnn(C)c3O)cc2c(=O)n1-c1ccccc1Br` stands 24 nM; under `Cc1nn(C)c(O)c1C(=O)c1ccc2nc(C)n(-c3cccc(Cl)c3)c(=O)c2c1`, 173 nM; under `Cc1cc(Cl)ccc1-n1c(C)nc2ccc(C(=O)c3c(C)nn(C)c3O)cc2c1=O`, 177 nM. On the same count and under the same terms, under `Cc1nc2ccc(C(=O)c3cnn(C)c3O)cc2c(=O)n1-c1ccc(OC(F)(F)F)cc1` stands 160 nM. For `Cc1ccc(-n2c(C)nc3ccc(C(=O)c4c(C)nn(C)c4O)cc3c2=O)c(Br)c1`, the inhibitory constant (Ki) is 87 nM. For `Cc1ccc(-n2c(C)nc3ccc(C(=O)c4c(C)nn(C)c4O)cc3c2=O)c(Cl)c1`, the Ki came out at 109 nM.

Take `Cc1cc(F)ccc1-n1c(C)nc2ccc(C(=O)c3c(C)nn(C)c3O)cc2c1=O`: the inhibitory constant (Ki) stood at 219 nM. For the compound `Cc1nc2ccc(C(=O)c3cnn(C)c3O)cc2c(=O)n1-c1ccc(Cl)cc1`, the Ki worked out at 22 nM. The same measure, in the same setting: under `Cc1nn(C)c(O)c1C(=O)c1ccc2nc(C)n(-c3ccccc3Cl)c(=O)c2c1` stands 86 nM. Regarding `Cc1nc2ccc(C(=O)c3cnn(C)c3O)cc2c(=O)n1-c1ccc(Br)cc1`, the inhibition constant (Ki) is 18 nM. The same measure, in the same setting: under `Cc1nn(C)c(O)c1C(=O)c1ccc2nc(C)n(-c3ccc(F)cc3)c(=O)c2c1` stands 247 nM; under `COc1ccccc1-n1c(C)nc2ccc(C(=O)c3cnn(C)c3O)cc2c1=O`, 38 nM; under `Cc1nn(C)c(O)c1C(=O)c1ccc2nc(C)n(-c3ccc(Br)cc3)c(=O)c2c1`, 130 nM. `Cc1ccc(-n2c(C)nc3ccc(C(=O)c4cnn(C)c4O)cc3c2=O)c(C)c1`: the Ki is 59 nM. Still for that read-out and setting: next, `Cc1cc(F)ccc1-n1c(C)nc2ccc(C(=O)c3cnn(C)c3O)cc2c1=O`: 40 nM. Regarding `Cc1cc(Cl)ccc1-n1c(C)nc2ccc(C(=O)c3cnn(C)c3O)cc2c1=O`, the inhibitory constant (Ki) amounted to 32 nM. Take `Cc1cccc(-n2c(C)nc3ccc(C(=O)c4c(C)nn(C)c4O)cc3c2=O)c1`: the Ki came to 74 nM.

For `Cc1nc2ccc(C(=O)c3cnn(C)c3O)cc2c(=O)n1-c1ccc(F)cc1`, the Ki is 34 nM.

Consider `Cc1ccc(-n2c(C)nc3ccc(C(=O)c4cnn(C)c4O)cc3c2=O)c(F)c1`, for which the inhibition constant Ki is 170 nM. On to `Cc1ccc(-n2c(C)nc3ccc(C(=O)c4cnn(C)c4O)cc3c2=O)c(Cl)c1`, for which the inhibitory constant (Ki) is 90 nM.

Take `Cc1nc2ccc(C(=O)c3cnn(C)c3O)cc2c(=O)n1-c1ccccc1Cl`: the inhibition constant Ki turned out to be 22 nM. In the case of `Cc1nc2ccc(C(=O)c3cnn(C)c3O)cc2c(=O)n1-c1ccc(Cl)c(Cl)c1`, the inhibition constant Ki is 25 nM. On the same count and under the same terms, next, `COc1ccc(-n2c(C)nc3ccc(C(=O)c4cnn(C)c4O)cc3c2=O)cc1`: 60 nM.

Turning to `Cc1nc2ccc(C(=O)c3cnn(C)c3O)cc2c(=O)n1-c1cccc(Cl)c1`, the inhibition constant (Ki) came out at 10 nM. Same read-out and setting: next, `Cc1ccc(-n2c(C)nc3ccc(C(=O)c4c(C)nn(C)c4O)cc3c2=O)cc1`: 156 nM.

`Cc1nn(C)c(O)c1C(=O)c1ccc2nc(C)n(-c3ccccc3F)c(=O)c2c1`: the inhibitory constant (Ki) was 79 nM. Consider `COc1cccc(-n2c(C)nc3ccc(C(=O)c4cnn(C)c4O)cc3c2=O)c1`, for which the inhibition constant (Ki) worked out at 34 nM. On the same count and under the same terms, next, `Cc1nc2ccc(C(=O)c3cnn(C)c3O)cc2c(=O)n1-c1cccc(Br)c1`: 14 nM.

As for `Cc1ccccc1-n1c(C)nc2ccc(C(=O)c3cnn(C)c3O)cc2c1=O`, the inhibitory constant (Ki) came to 58 nM. Take `Cc1nn(C)c(O)c1C(=O)c1ccc2nc(C)n(-c3ccc(Cl)cc3)c(=O)c2c1`: the Ki was 237 nM. For the compound `Cc1ccc(-n2c(C)nc3ccc(C(=O)c4c(C)nn(C)c4O)cc3c2=O)c(F)c1`, the inhibitory constant (Ki) came out at 81 nM. On to `Cc1nn(C)c(O)c1C(=O)c1ccc2nc(C)n(-c3cccc(F)c3)c(=O)c2c1`, for which the inhibitory constant (Ki) was 90 nM. As for `Cc1nc2ccc(C(=O)c3cnn(C)c3O)cc2c(=O)n1-c1ccccc1F`, the Ki turned out to be 15 nM. Turning to `Cc1cccc(-n2c(C)nc3ccc(C(=O)c4cnn(C)c4O)cc3c2=O)c1`, the Ki stood at 13 nM. Take `Cc1nn(C)c(O)c1C(=O)c1ccc2nc(C)n(-c3cccc(Br)c3)c(=O)c2c1`: the inhibition constant (Ki) was 93 nM. With `Cc1ccccc1-n1c(C)nc2ccc(C(=O)c3c(C)nn(C)c3O)cc2c1=O`, the Ki is 248 nM. Same read-out and setting: under `Cc1ccc(-n2c(C)nc3ccc(C(=O)c4cnn(C)c4O)cc3c2=O)c(Br)c1` stands 11 nM; under `Cc1nc2ccc(C(=O)c3cnn(C)c3O)cc2c(=O)n1-c1cccc(F)c1`, 20 nM.

Regarding `Cc1nc2ccc(C(=O)c3cnn(C)c3O)cc2c(=O)n1-c1cccc(OC(F)(F)F)c1`, the inhibition constant (Ki) amounted to 31 nM.

In the case of `COc1ccc(-n2c(C)nc3ccc(C(=O)c4c(C)nn(C)c4O)cc3c2=O)cc1`, the inhibition constant (Ki) turned out to be 238 nM.

The target in the next test is T1, 4-hydroxyphenylpyruvate dioxygenase. The experiment in a line: Ratio of Nitisinone Ki to compound Ki for purified His6-tagged recombinant human HPPD assessed as inhibition of maleylacetoacetate formation after 30 mins by UV/visible spectrophotometry.
Target sequence in this assay (P32754 2-393 limits assumed): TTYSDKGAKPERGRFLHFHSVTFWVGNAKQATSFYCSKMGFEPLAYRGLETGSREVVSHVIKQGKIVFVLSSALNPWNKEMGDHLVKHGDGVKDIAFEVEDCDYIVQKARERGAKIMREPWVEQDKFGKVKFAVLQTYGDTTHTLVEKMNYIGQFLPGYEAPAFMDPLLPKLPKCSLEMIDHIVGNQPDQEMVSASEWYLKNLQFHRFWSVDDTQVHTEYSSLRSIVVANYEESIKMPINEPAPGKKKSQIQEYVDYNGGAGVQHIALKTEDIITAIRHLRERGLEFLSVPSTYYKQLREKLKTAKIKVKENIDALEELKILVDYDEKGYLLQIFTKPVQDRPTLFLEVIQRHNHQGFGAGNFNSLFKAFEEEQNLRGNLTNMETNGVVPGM
`Cc1nc2ccc(C(=O)c3cnn(C)c3O)cc2c(=O)n1-c1cccc(Cl)c1`: the Ratio Ki turned out to be 3. Same read-out and setting: under `Cc1ccc(-n2c(C)nc3ccc(C(=O)c4cnn(C)c4O)cc3c2=O)c(Br)c1` stands 3.

The values above are taken from ChEMBL document CHEMBL3351560, “Pyrazolone-quinazolone hybrids: a novel class of human 4-hydroxyphenylpyruvate dioxygenase inhibitors” (Bioorg Med Chem, 2014).
